For one substance, syndecan-1 expression results are on record in US6492344B1, “Syndecan enhancer element and syndecan stimulation of cellular differentiation” (Biotie Therapies Corp., priority 1993, dated 2002).

The assay relates to syndecan-1 expression in 3T3 cells. The assay can be described thus: Quantitation of cell surface syndecan in 3T3 cells exposed to growth factors. In kind it is cell-based, mouse. The note with it: FGF-2 administered alone. As to the method:
Growth factors enhance syndecan expression. NMuMG mouse mammary epithelial cells and 3T3 (NIH) mouse fibroblasts were routinely cultured in bicarbonate-buffered Dulbecco's modified Eagle's medium (DMEM; GIBCO) containing 10% FCS (GIBCO) and antibiotics, as previously described (Elenius et al., J. Biol. Chem. 265:17837-17843 (1990)). For experiments, cells were plated at equal density on culture dishes (Nunc) and grown to 60-70% confluency. Twenty-four hours before supplementing the medium with growth factor(s), the medium on the cells was replaced with fresh medium containing 2% CMS-FCS (Vogel et al., Proc. Natl. Acad. Sci. USA 75:2810-2814 (1978)). Equally treated cultures without growth factor addition served as negative controls. […] For quantitation and isolation of cell surface syndecan, media were discarded at time points indicated in the text and the cell layers were washed twice with ice cold phosphate buffered saline (PBS). […] After subsequent washes by resuspension and centrifugation the cell numbers were measured by counting the nuclei with a Coulter Counter (Coulter Electronics).
For quantitation of syndecan intercalated into the cell membrane, syndecan ectodomain was released by incubating washed cells in 20 μg/ml bovine pancreatic trypsin (Type III; Sigma) in PBS for 10 min on ice bath. […]

Regarding “FGF-2: Basic fibroblast growth factor (FGF-2 or bFGF); recombinant human”, the syndecan-1 expression result is “shows enhancement of syndecan-1 expression”.
